Patent US20230111310A1, “CARBOXYLIC ACID DERIVATIVE-SUBSTITUTED IMINO ARYL COMPOUND, PREPARATION METHOD THEREFOR, HERBICIDAL COMPOSITION AND USE THEREOF” (Qingdao Kingagroot Chemical Compound Co., Ltd., priority 2020, published 2023)

What was measured:
Test in all cases: Weeding effect in post-emergence stage
Type in all cases: in vivo
Settings in all cases: level of fresh weight growth control rate
[1] = system: Abutilon theophrasti
How it was run: (§1)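 Seeds are sown in soil-filled pots under 0.5-2 cm soil and grown 2 weeks in greenhouse. Plants at 2-3 leaves are sprayed with compound (acetone, Tween 80, 1.5 liter/ha methyl oleate EC, water) at 7.5 to 500 g/ha. Damage is rated 3 weeks later, averaging three repeats.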

[2] = system: Alopecurus japonicus
How it was run: as §1

[3] = system: Digitaria sanguinalis
How it was run: as §1

[4] = system: Eleusine indica
How it was run: as §1

[5] = system: Setaria viridis
How it was run: as §1

[6] = system: Echinochloa crusgalli
How it was run: as §1

SMILES	Weeding effect in post-emergence stage, Abutilon theophrasti ([1]; Dose 15 g/ha)	Weeding effect in post-emergence stage, Alopecurus japonicus ([2]; Dose 15 g/ha)	Weeding effect in post-emergence stage, Digitaria sanguinalis ([3]; Dose 15 g/ha)	Weeding effect in post-emergence stage, Eleusine indica ([4]; Dose 15 g/ha)	Weeding effect in post-emergence stage, Setaria viridis ([5]; Dose 15 g/ha)	Weeding effect in post-emergence stage, Echinochloa crusgalli ([6]; Dose 15 g/ha)	further results
CC(O/N=C/c1cc(-n2c(=O)cc(C(F)(F)F)n(C)c2=O)c(F)cc1Cl)C(=O)OCc1cccc(F)c1 (stereo not drawn) [Compound 285]							Weeding effect in post-emergence stage, Abutilon theophrasti ([1]; Dose 30 g/ha): 5 (Level 5: growth control rate is above 85%); Weeding effect in post-emergence stage, Alopecurus japonicus ([2]; Dose 30 g/ha): 5 (Level 5: growth control rate is above 85%); Weeding effect in post-emergence stage, Digitaria sanguinalis ([3]; Dose 30 g/ha): 5 (Level 5: growth control rate is above 85%); Weeding effect in post-emergence stage, Eleusine indica ([4]; Dose 30 g/ha): 5 (Level 5: growth control rate is above 85%); Weeding effect in post-emergence stage, Setaria viridis ([5]; Dose 30 g/ha): 5 (Level 5: growth control rate is above 85%); Weeding effect in post-emergence stage, Echinochloa crusgalli ([6]; Dose 30 g/ha): 5 (Level 5: growth control rate is above 85%)
CC(O/N=C/c1cc(-n2c(=O)cc(C(F)(F)F)n(C)c2=O)c(F)cc1Cl)C(=O)OCc1ccc(F)cc1 (stereo not drawn) [Compound 286]							Weeding effect in post-emergence stage, Abutilon theophrasti ([1]; Dose 30 g/ha): 5 (Level 5: growth control rate is above 85%); Weeding effect in post-emergence stage, Alopecurus japonicus ([2]; Dose 30 g/ha): 5 (Level 5: growth control rate is above 85%); Weeding effect in post-emergence stage, Digitaria sanguinalis ([3]; Dose 30 g/ha): 5 (Level 5: growth control rate is above 85%); Weeding effect in post-emergence stage, Eleusine indica ([4]; Dose 30 g/ha): 5 (Level 5: growth control rate is above 85%); Weeding effect in post-emergence stage, Setaria viridis ([5]; Dose 30 g/ha): 5 (Level 5: growth control rate is above 85%); Weeding effect in post-emergence stage, Echinochloa crusgalli ([6]; Dose 30 g/ha): 5 (Level 5: growth control rate is above 85%)
CC(O/N=C/c1cc(-n2c(=O)cc(C(F)(F)F)n(C)c2=O)c(F)cc1Cl)C(=O)OCc1ccccn1 (stereo not drawn) [Compound 301]	5 (Level 5: growth control rate is above 85%)	5 (Level 5: growth control rate is above 85%)	5 (Level 5: growth control rate is above 85%)	5 (Level 5: growth control rate is above 85%)	5 (Level 5: growth control rate is above 85%)	5 (Level 5: growth control rate is above 85%)	
CC(O/N=C/c1cc(-n2c(=O)cc(C(F)(F)F)n(C)c2=O)c(F)cc1Cl)C(=O)OCc1cccnc1 (stereo not drawn) [Compound 302]	5 (Level 5: growth control rate is above 85%)	5 (Level 5: growth control rate is above 85%)	5 (Level 5: growth control rate is above 85%)	5 (Level 5: growth control rate is above 85%)	5 (Level 5: growth control rate is above 85%)	5 (Level 5: growth control rate is above 85%)	
CC(O/N=C/c1cc(-n2c(=O)cc(C(F)(F)F)n(C)c2=O)c(F)cc1Cl)C(=O)OCc1ccncc1 (stereo not drawn) [Compound 303]	5 (Level 5: growth control rate is above 85%)	5 (Level 5: growth control rate is above 85%)	5 (Level 5: growth control rate is above 85%)	5 (Level 5: growth control rate is above 85%)	5 (Level 5: growth control rate is above 85%)	5 (Level 5: growth control rate is above 85%)	
CCOC(=O)C(F)O/N=C/c1cc(-n2c(=O)cc(C(F)(F)F)n(C)c2=O)c(F)cc1Cl (stereo not drawn) [Compound 313]	5 (Level 5: growth control rate is above 85%)	5 (Level 5: growth control rate is above 85%)	5 (Level 5: growth control rate is above 85%)	5 (Level 5: growth control rate is above 85%)	5 (Level 5: growth control rate is above 85%)	5 (Level 5: growth control rate is above 85%)	
CCC(O/N=C/c1cc(-n2c(=O)cc(C(F)(F)F)n(C)c2=O)c(F)cc1Cl)C(=O)OC (stereo not drawn) [Compound 315]	5 (Level 5: growth control rate is above 85%)	5 (Level 5: growth control rate is above 85%)	5 (Level 5: growth control rate is above 85%)	5 (Level 5: growth control rate is above 85%)	5 (Level 5: growth control rate is above 85%)	5 (Level 5: growth control rate is above 85%)	
CCCC(O/N=C/c1cc(-n2c(=O)cc(C(F)(F)F)n(C)c2=O)c(F)cc1Cl)C(=O)OC (stereo not drawn) [Compound 316]	5 (Level 5: growth control rate is above 85%)	5 (Level 5: growth control rate is above 85%)	5 (Level 5: growth control rate is above 85%)	5 (Level 5: growth control rate is above 85%)	5 (Level 5: growth control rate is above 85%)	5 (Level 5: growth control rate is above 85%)	
COC(=O)C(O/N=C/c1cc(-n2c(=O)cc(C(F)(F)F)n(C)c2=O)c(F)cc1Cl)C(C)C (stereo not drawn) [Compound 318]	5 (Level 5: growth control rate is above 85%)	5 (Level 5: growth control rate is above 85%)	5 (Level 5: growth control rate is above 85%)	5 (Level 5: growth control rate is above 85%)	5 (Level 5: growth control rate is above 85%)	5 (Level 5: growth control rate is above 85%)	
CCOC(=O)C(O/N=C/c1cc(-n2c(=O)cc(C(F)(F)F)n(C)c2=O)c(F)cc1Cl)C1CC1 (stereo not drawn) [Compound 319]							Weeding effect in post-emergence stage, Abutilon theophrasti ([1]; Dose 30 g/ha): 5 (Level 5: growth control rate is above 85%); Weeding effect in post-emergence stage, Alopecurus japonicus ([2]; Dose 30 g/ha): 5 (Level 5: growth control rate is above 85%); Weeding effect in post-emergence stage, Digitaria sanguinalis ([3]; Dose 30 g/ha): 5 (Level 5: growth control rate is above 85%); Weeding effect in post-emergence stage, Eleusine indica ([4]; Dose 30 g/ha): 5 (Level 5: growth control rate is above 85%); Weeding effect in post-emergence stage, Setaria viridis ([5]; Dose 30 g/ha): 5 (Level 5: growth control rate is above 85%); Weeding effect in post-emergence stage, Echinochloa crusgalli ([6]; Dose 30 g/ha): 5 (Level 5: growth control rate is above 85%)
COC(=O)C(OC)O/N=C/c1cc(-n2c(=O)cc(C(F)(F)F)n(C)c2=O)c(F)cc1Cl (stereo not drawn) [Compound 321]							Weeding effect in post-emergence stage, Abutilon theophrasti ([1]; Dose 120 g/ha): 5 (Level 5: growth control rate is above 85%); Weeding effect in post-emergence stage, Alopecurus japonicus ([2]; Dose 120 g/ha): 5 (Level 5: growth control rate is above 85%); Weeding effect in post-emergence stage, Digitaria sanguinalis ([3]; Dose 120 g/ha): 5 (Level 5: growth control rate is above 85%); Weeding effect in post-emergence stage, Eleusine indica ([4]; Dose 120 g/ha): 5 (Level 5: growth control rate is above 85%); Weeding effect in post-emergence stage, Setaria viridis ([5]; Dose 120 g/ha): 5 (Level 5: growth control rate is above 85%); Weeding effect in post-emergence stage, Echinochloa crusgalli ([6]; Dose 120 g/ha): 5 (Level 5: growth control rate is above 85%)
CCOC(=O)C(OC)O/N=C/c1cc(-n2c(=O)cc(C(F)(F)F)n(C)c2=O)c(F)cc1Cl (stereo not drawn) [Compound 322]							Weeding effect in post-emergence stage, Abutilon theophrasti ([1]; Dose 120 g/ha): 5 (Level 5: growth control rate is above 85%); Weeding effect in post-emergence stage, Alopecurus japonicus ([2]; Dose 120 g/ha): 5 (Level 5: growth control rate is above 85%); Weeding effect in post-emergence stage, Digitaria sanguinalis ([3]; Dose 120 g/ha): 5 (Level 5: growth control rate is above 85%); Weeding effect in post-emergence stage, Eleusine indica ([4]; Dose 120 g/ha): 5 (Level 5: growth control rate is above 85%); Weeding effect in post-emergence stage, Setaria viridis ([5]; Dose 120 g/ha): 5 (Level 5: growth control rate is above 85%); Weeding effect in post-emergence stage, Echinochloa crusgalli ([6]; Dose 120 g/ha): 5 (Level 5: growth control rate is above 85%)
CCOC(O/N=C/c1cc(-n2c(=O)cc(C(F)(F)F)n(C)c2=O)c(F)cc1Cl)C(=O)OC (stereo not drawn) [Compound 331]	5 (Level 5: growth control rate is above 85%)	5 (Level 5: growth control rate is above 85%)	5 (Level 5: growth control rate is above 85%)	5 (Level 5: growth control rate is above 85%)	5 (Level 5: growth control rate is above 85%)	5 (Level 5: growth control rate is above 85%)	
COCC(O/N=C/c1cc(-n2c(=O)cc(C(F)(F)F)n(C)c2=O)c(F)cc1Cl)C(=O)OC (stereo not drawn) [Compound 333]	5 (Level 5: growth control rate is above 85%)	5 (Level 5: growth control rate is above 85%)	5 (Level 5: growth control rate is above 85%)	5 (Level 5: growth control rate is above 85%)	5 (Level 5: growth control rate is above 85%)	5 (Level 5: growth control rate is above 85%)	
COC(=O)C(O/N=C/c1cc(-n2c(=O)cc(C(F)(F)F)n(C)c2=O)c(F)cc1Cl)c1ccccc1 (stereo not drawn) [Compound 337]	5 (Level 5: growth control rate is above 85%)	5 (Level 5: growth control rate is above 85%)	5 (Level 5: growth control rate is above 85%)	5 (Level 5: growth control rate is above 85%)	5 (Level 5: growth control rate is above 85%)	5 (Level 5: growth control rate is above 85%)	
